System: adipose-derived stromal/stem cells (ASC's)
Assay: Viability of adipose-derived stromal/stem cells after cryopreservation, flow cytometry with 7-AAD
Type: cell-based
Settings: 10% DMSO
Description: ASC's were harvested from adipose tissue obtained by cosmetic liposuction of the abdomen or the inner thighs using the Vibrasat device (Möller Medical GmbH & Co. KG, Fulda, Germany). The ASC's from the stromal vascular fraction were expanded ex vivo in culture medium consisting of Dulbecco's modified Eagle's medium, 1% penicillin-streptomycin, 1% GlutaMAX, and 10% pooled human platelet lysate. Cells were frozen in cryoprotective medium containing 10% DMSO or different concentrations of isomaltooligosaccharide 1 (isom) or hydrogenated isomaltooligosaccharide 1 (h-isom). Samples were frozen using a controlled rate freezer (Kryo 560-16, Planer; start temp. 4° C., −1° C./min drop to 0° C., −2° C./min drop to −45° C. and −5° C./min drop to −100° C.) and moved to −150° C. Samples were thawed in a 37° C. water bath. Flow cytometry was applied for phenotype characterization (positive for CD73, CD90, CD105 and negative for CD14, CD20, CD45 and CD34) and to estimate the viability of ASC's. The fluorescent DNA binding compound 7-Aminoactinomycin D (7-AAD) was used as a live/dead marker. Cells able to exclude 7AAD were assumed to be viable. The results are shown in FIG. 11: Isomaltooligosaccharide 1 (light grey bars), hydrogenated isomaltooligosaccharide 1 (dark grey bars) and DMSO (black bars). Data shown here are from a single experiment measured in doublets. […]

## C[S+](C)[O-] [DMSO, dimethyl sulfoxide]
  Viability of ASCs, result against expectation: lower than expected

Source: patent US12660812B2, “Cryoprotecting agent, cryoprotecting and cryopreserved compositions, uses thereof, and methods of cryopreservation” (PHARMACOSMOS HOLDING A/S, priority 2012, dated 2026)
